Experimental data: ChEMBL document CHEMBL6078629, “Targeting Protein Kinase, Membrane-Associated Tyrosine/Threonine 1 (PKMYT1) for Precision Cancer Therapy: From Discovery to Clinical Trial” (J Med Chem, 2024)

How the values were obtained:
[1] = target: T1, Membrane-associated tyrosine- and threonine-specific cdc2-inhibitory kinase (Homo sapiens, UniProt Q99640); test: Inhibition of PKMYT1 (unknown origin) by TR-FRET analysis
T1 sequence (Q99640 whole entry): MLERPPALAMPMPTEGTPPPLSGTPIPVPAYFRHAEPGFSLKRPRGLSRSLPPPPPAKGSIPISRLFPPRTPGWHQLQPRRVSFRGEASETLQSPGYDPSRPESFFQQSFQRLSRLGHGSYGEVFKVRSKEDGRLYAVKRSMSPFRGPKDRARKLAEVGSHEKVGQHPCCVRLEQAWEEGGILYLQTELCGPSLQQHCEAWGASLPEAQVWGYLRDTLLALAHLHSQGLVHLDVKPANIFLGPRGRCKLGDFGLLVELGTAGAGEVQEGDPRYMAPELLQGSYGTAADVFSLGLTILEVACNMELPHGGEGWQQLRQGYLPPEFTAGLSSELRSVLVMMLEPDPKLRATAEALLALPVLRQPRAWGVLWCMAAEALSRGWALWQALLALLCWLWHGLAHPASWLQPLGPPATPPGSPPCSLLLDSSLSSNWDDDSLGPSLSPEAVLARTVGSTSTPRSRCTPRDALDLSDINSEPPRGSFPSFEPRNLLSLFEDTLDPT

[2] = target: T1, Membrane-associated tyrosine- and threonine-specific cdc2-inhibitory kinase; test: Inhibition of PKMYT1 (unknown origin)
MIA PaCa-2 = test: Antiproliferative activity against human MIA PaCa-2 cells assessed as reduction in cell viability incubated for 48 hrs by MTT assay; format: functional, cell-based; conditions: MIA PaCa-2, 48 h
[3] = Half life in […] at 2 mg/kg, iv; format: ADME, organism-based; conditions: in vivo
[4] = Clearance in CD-1 mouse at 2 mg/kg, iv by LC-MS/MS analysis; format: ADME, organism-based; conditions: in vivo
HCC1569 = test: Antiproliferative activity against human HCC1569 cells assessed as reduction in cell viability incubated for 48 hrs by MTT assay; format: functional, cell-based; conditions: HCC1569, 48 h
[5] = target: T1, Membrane-associated tyrosine- and threonine-specific cdc2-inhibitory kinase; test: Binding affinity to PKMYT1 (unknown origin) assessed as dissociation constant
Wee1-like protein kinase [6] = target: T2, Wee1-like protein kinase (Homo sapiens, UniProt P30291); test: Binding affinity to WEE1 (unknown origin) assessed as dissociation constant
T2 sequence (P30291 whole entry): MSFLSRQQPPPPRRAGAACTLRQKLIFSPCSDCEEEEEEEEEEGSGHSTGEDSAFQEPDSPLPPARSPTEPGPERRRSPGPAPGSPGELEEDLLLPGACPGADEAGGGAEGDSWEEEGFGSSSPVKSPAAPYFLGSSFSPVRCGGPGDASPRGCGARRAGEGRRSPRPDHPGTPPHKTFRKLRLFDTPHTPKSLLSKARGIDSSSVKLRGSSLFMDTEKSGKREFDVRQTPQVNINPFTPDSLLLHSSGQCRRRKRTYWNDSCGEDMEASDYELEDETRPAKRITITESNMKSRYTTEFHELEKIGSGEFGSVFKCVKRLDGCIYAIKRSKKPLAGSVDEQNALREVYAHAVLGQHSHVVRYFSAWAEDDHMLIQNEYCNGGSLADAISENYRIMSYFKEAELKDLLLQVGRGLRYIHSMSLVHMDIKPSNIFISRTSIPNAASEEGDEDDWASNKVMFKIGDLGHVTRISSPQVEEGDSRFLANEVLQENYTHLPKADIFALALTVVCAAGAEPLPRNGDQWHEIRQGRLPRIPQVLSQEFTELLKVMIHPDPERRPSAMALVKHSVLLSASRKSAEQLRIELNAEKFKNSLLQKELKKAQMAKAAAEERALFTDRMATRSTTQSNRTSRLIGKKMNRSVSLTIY

Wee1-like protein kinase [7] = target: T2, Wee1-like protein kinase; test: Inhibition of WEE1 (unknown origin)
[8] = target: T1, Membrane-associated tyrosine- and threonine-specific cdc2-inhibitory kinase; test: Inhibition of PKMYT1 (unknown origin) extracted from insect cells by TR-FRET analysis; format: cell-free, Insect cell

## Cc1cc(Nc2ncc3cc(-c4c(Cl)cccc4Cl)c(=O)n(C)c3n2)ccc1F
[1]
  IC50: 7.2 nM

## Cc1nc2c3c(c(N)n(-c4c(C)ccc(O)c4C)c3n1)C(=O)NCC2
[1]
  IC50: ≤ 10 nM

## Cc1ccc(O)c(C)c1-c1c(N)c(C(N)=O)nc2cccnc12
[2]
  IC50: < 50 nM

## Cc1cc2c(C(N)=O)c(N)n(-c3c(C)c(O)cc(F)c3C)c2nc1C
[2]
  IC50: ≤ 200 nM
MIA PaCa-2
  IC50: 4320 nM
[3]
  half-life: 0.56 h
[4]
  clearance: 94.4 mL/min/kg

## Cc1ccc(O)c(C)c1-n1c(N)c2c3c(ncnc31)-c1ccccc1NC2=O
HCC1569
  IC50: 42 nM

## COc1ccnc2c(-c3c(C)ccc(O)c3C)c(N)c(C(N)=O)cc12
[2]
  IC50: < 50 nM

## Cc1ccc(O)c(C)c1-c1cc2cnc(Nc3ccccn3)nc2n(C)c1=O
[5]
  Kd: ≤ 10 nM
Wee1-like protein kinase [6]
  Kd: > 500 nM

## CN(C)C(=O)NCc1cc(Nc2ncc3cc(-c4c(Cl)cccc4Cl)c(=O)n(C)c3n2)nnc1OCCN1CCS(=O)(=O)CC1
[5]
  Kd: ≤ 10 nM
Wee1-like protein kinase [6]
  Kd: > 500 nM

## Cc1ccc(O)c(C)c1-n1nc(-c2nccs2)c(C(N)=O)c1N
[2]
  IC50: ≤ 10 nM
Wee1-like protein kinase [7]
  IC50: 500 nM

## Cc1ccc(O)c(C)c1-n1c2ncc(N3CCOCC3)nc2c2c(N)ncnc21
[2]
  IC50: < 100 nM
HCC1569
  IC50: < 5 nM

## COc1ccc(Nc2ncc3cc(-c4c(C)ccc(O)c4C)c(=O)n(C)c3n2)nc1
[5]
  Kd: ≤ 10 nM
Wee1-like protein kinase [6]
  Kd: > 500 nM

## Cc1ccc(O)c(C)c1-c1cnc2[nH]c(-c3ccc(N4CCN(C)CC4)nc3C)nc2c1
[2]
  IC50: 500 nM

## Cc1c(O)cccc1-c1c(N)c(C(N)=O)nc2cccnc12
[2]
  IC50: < 50 nM

## Cc1ccc(O)c(C)c1-c1c(N)c(C(N)=O)nc2nccnc12
[2]
  IC50: < 50 nM

## C[C@@H](O)CC[C@H](C)Oc1ccc(Nc2ncc3cc(-c4c(Cl)cccc4Cl)c(=O)n(C)c3n2)nn1
[5]
  Kd: ≤ 10 nM
Wee1-like protein kinase [6]
  Kd: > 500 nM

## Cc1nc2c3c(c(N)n(-c4c(C)ccc(O)c4C)c3n1)C(=O)Nc1ccccc1-2
HCC1569
  IC50: 22 nM

## CSc1ncc2c(C(N)=O)c(N)n(-c3c(C)ccc(O)c3C)c2n1
[2]
  IC50: < 100 nM

## Cc1ccc(-c2cc3c(Cl)c(-c4c(C)ccc(O)c4C)cnc3[nH]2)cn1
[2]
  IC50: ≤ 10 nM

## Cc1ncc(-c2[nH]c3ncc(-c4c(C)ccc(O)c4C)nc3c2Cl)cn1
[2]
  IC50: ≤ 10 nM

## Cc1c(O)cccc1-c1c(N)c(C(N)=O)nc2cccc(C#N)c12
[2]
  IC50: < 50 nM

## CCOc1cc2ncc(C#N)c(Nc3ccc(F)c(Cl)c3)c2cc1NC(=O)/C=C\CN(C)C
[8]
  IC50: 2900 nM

## Cc1ccc(O)c(C)c1C1C(N)=C(C(N)=O)C2C=C(C(C)C)C=NN21 (stereo not given)
[2]
  IC50: < 10 nM

## Cc1ccc(O)c(C)c1-n1c(N)c2c3c(ncnc31)C=C(c1cnn(C)c1)NC2=O
HCC1569
  IC50: 8.6 nM

## Cc1ccc(O)c(C)c1-n1c(N)c(C(N)=O)c2cc(NC(N)=O)cnc21
[2]
  IC50: < 20 nM

## Cc1c(O)cccc1-c1c(N)c(C(N)=O)cc2nccc(C#N)c12
[2]
  IC50: < 50 nM

## CC1=NN2C(C=C1C1CC1)C(C(N)=O)=C(N)C2c1c(C)ccc(O)c1C (stereo not given)
[2]
  IC50: < 10 nM

## Cc1cc2c3c(N)ncnc3n(-c3c(C)ccc(O)c3C)c2nc1C
[2]
  IC50: < 100 nM
HCC1569
  IC50: < 5 nM

## CCn1ccc(Oc2ccc(Nc3ncc4cc(-c5c(Cl)cccc5Cl)c(=O)n(C)c4n3)nc2)n1
[5]
  Kd: ≤ 10 nM
Wee1-like protein kinase [6]
  Kd: > 500 nM

## COc1ccnc2c(-c3cccc(O)c3C)c(N)c(C(N)=O)cc12
[2]
  IC50: < 50 nM

## Cc1ccc(O)c(C)c1-n1c(N)c(C(N)=O)c2c(=O)n(CF)ccc21
[1]
  IC50: 1.5 nM

## Cc1ccc(O)c(C)c1-n1c(N)c2c3c(c(C)ncc31)CCNC2=O
[1]
  IC50: 10 nM
Wee1-like protein kinase [7]
  IC50: > 10000 nM

## CC1=CC2C(C(N)=O)=C(N)C(c3c(C)ccc(O)c3C)N2N=C1 (stereo not given)
[2]
  IC50: < 10 nM

## Cc1ccc(O)c(C)c1-n1c(N)c2c3c(c(C)cnc31)CCNC2=O
[1]
  IC50: ≤ 10 nM

## CC1=CC2C(C(N)=O)=C(N)C(c3c(C)ccc(O)c3C)N2N=C1C (stereo not given)
[2]
  IC50: < 10 nM

## Cc1cc2c(C(N)=O)c(N)n(-c3c(C)ccc(O)c3C)c2nc1C [LUNRESERTIB]
MIA PaCa-2
  IC50: 9220 nM
[3]
  half-life: 3.32 h
[4]
  clearance: 46.5 mL/min/kg

## COc1cc2ncnc(Nc3cccc(Cl)c3)c2cc1OC [TYRPHOSTIN AG-1478]
[8]
  IC50: 7200 nM
